In ChEMBL document CHEMBL1129748, “Structure-activity relationships of 4-hydroxy-3-nitroquinolin-2(1H)-ones as novel antagonists at the glycine site of N-methyl-D-aspartate receptors” (J Med Chem, 1996) one finds Kb, IC50 and Selectivity data, which are given here for 31 compounds.

A value given as a limit tells only on which side of the number the result lay.

By IC50 is commonly meant the midpoint of a concentration-inhibition curve. High values mean weaker potency in that assay, low ones greater potency in that assay.

The target in one experiment is T1, Glutamate receptor ionotropic, AMPA (Rattus norvegicus) (UniProt P19491+P19492+P19493+P19490). Description: Compound was tested for inhibition of AMPA receptors was measured in oocytes expressing rat cerebral cortex poly(A)+ RNA.(Three cells were examined ). Type of experiment: functional, cell-based. Conditions: Oocyte.
In turn, `O=[N+]([O-])c1c(O)nc2cc(Cl)c(Cl)c(Cl)c2c1O` gave a Kb of 19 µM.

A further experiment has as its target Glutamate NMDA receptor. Description: Compound was tested for inhibition of [3H]DCKA binding to NMDA receptor of rat brain membranes. Type of experiment: cell membranes, Membrane.
Details: not given
Take `O=[N+]([O-])c1c(O)nc2cc(Cl)ccc2c1O`: the half-inhibitory concentration (IC50) is 1.5 µM.

The next experiment addresses Glutamate NMDA receptor. Description: Inhibition of [3H]DCKA binding to NMDA receptor of rat brain membranes. Type of experiment: cell membranes, Membrane.
Details: not given
`O=Nc1c(O)nc2cc(Cl)c(Cl)c(Cl)c2c1O`: the IC50 amounted to 0.007 µM. This lies in the single-digit nanomolar range.

With `Oc1nc2cc(Cl)c(Cl)cc2nc1O` [2,3-DIHYDROXY-6,7-DICHLOROQUINOXALINE], the 50% inhibitory concentration (IC50) turned out to be 0.13 µM. Compared with the last compound, the IC50 is about 19-fold higher.

As to `Oc1nc2cc(F)c(Cl)c(F)c2nc1O`, the 50% inhibitory concentration (IC50) amounted to 0.63 µM.

The compound `O=[N+]([O-])c1c(O)nc2c(F)c(Cl)c(F)cc2c1O` yielded an IC50 of 40 µM.

In turn, `Cc1cc(C)c2c(O)c([N+](=O)[O-])c(O)nc2c1` gave an IC50 of 0.29 µM. This IC50 lies about 140-fold lower than the previous one.

`O=c1[nH]c2ccc(Cl)cc2[nH]c1=O` returned an IC50 of 1.8 µM. This IC50 is about 6.2-fold higher than that of the compound before.

The compound `O=[N+]([O-])c1c(O)nc2c(Cl)c(Cl)c(Cl)cc2c1O` displayed a 50% inhibitory concentration (IC50) of over 100 µM.

The compound `O=Nc1c(O)c2c(F)c(F)c(F)c(F)c2[nH]c1=O` yielded an IC50 of 3.3 µM.

`Cc1cc(C)c2nc(O)c(O)nc2c1`: the IC50 is 2.1 µM.

As for `O=Nc1c(O)c2cc(F)c(Cl)c(F)c2[nH]c1=O`, the IC50 came to 0.91 µM.

For the compound `Oc1nc2cc(Cl)cc(Cl)c2nc1O`, the half-maximal inhibitory concentration (IC50) was found to be 0.28 µM.

Compound `O=[N+]([O-])c1c(O)nc2cccc(Cl)c2c1O` registered an IC50 of 61 µM. This IC50 is about 220-fold higher than that of the compound before.

On to `Oc1nc2ccccc2nc1O`, for which the 50% inhibitory concentration (IC50) was determined as 9.8 µM.

`O=[N+]([O-])c1c(O)nc2c(Cl)cccc2c1O` yielded an IC50 of over 100 µM.

On to `O=Nc1c(O)nc2c(Cl)cccc2c1O`, for which the concentration for half-maximal inhibition (IC50) is over 100 µM.

`O=Nc1c(O)c2cc(Cl)ccc2[nH]c1=O` registered an IC50 of 3.4 µM. This counts as single-digit micromolar.

`O=Nc1c(O)nc2cc(Cl)ccc2c1O` registered an IC50 of 0.053 µM.

`O=[N+]([O-])c1c(O)nc2ccccc2c1O` registered an IC50 of 34 µM.

In the case of `O=[N+]([O-])c1c(O)nc2cc(Cl)c(Cl)cc2c1O`, the half-maximal inhibitory concentration (IC50) stood at 0.4 µM.

`Oc1nc2cc(Cl)c(Cl)c(Cl)c2nc1O`: the half-inhibitory concentration (IC50) stood at 0.03 µM.

As to `O=[N+]([O-])c1c(O)nc2ccc(Cl)cc2c1O`, the concentration for half-maximal inhibition (IC50) was over 100 µM.

The compound `O=Nc1c(O)nc2ccccc2c1O` returned an IC50 of 1.4 µM.

Turning to `O=Nc1c(O)c2c(Cl)cc(Cl)cc2[nH]c1=O`, the IC50 was 0.033 µM.

`Cc1cc(C)c2c(O)c(N=O)c(=O)[nH]c2c1`: the IC50 amounted to 0.037 µM.

In the case of `O=[N+]([O-])c1c(O)nc2c(F)c(F)c(F)c(F)c2c1O`, the IC50 is over 100 µM.

`O=[N+]([O-])c1c(O)nc2cc(Cl)cc(Cl)c2c1O` gave an IC50 of 0.22 µM.

In turn, `O=c1[nH]c2c(F)c(F)c(F)c(F)c2[nH]c1=O` showed an IC50 of 0.73 µM.

`O=[N+]([O-])c1c(O)nc2cc(Cl)c(Cl)c(Cl)c2c1O` returned a 50% inhibitory concentration (IC50) of 0.22 µM.

The compound `O=Nc1c(O)nc2cccc(Cl)c2c1O` gave a concentration for half-maximal inhibition (IC50) of 4.4 µM.

Compound `O=Nc1c(O)nc2cc(Cl)c(Cl)cc2c1O` yielded a half-maximal inhibitory concentration (IC50) of 0.012 µM. Compared with the last compound, the IC50 is about 370-fold lower.

Test system in another experiment: not listed separately
Description: Compound was tested for steady-state selectivity index for inhibition at NMDAreceptor glycine sites was estimated by dividing Kb AMPA by Kb glycine. Type of experiment: functional.
Details: not given
On to `O=[N+]([O-])c1c(O)nc2cc(Cl)c(Cl)c(Cl)c2c1O`, for which the Selectivity was 240.

Test system in the next experiment: not listed separately
Description: Compound was tested for steady-state selectivity index for inhibition at NMDA receptor glycine sites was estimated by dividing Kb AMPA by Kb glycine. Type of experiment: functional.
Details: not given
Turning to `Cc1cc(C)c2c(O)c([N+](=O)[O-])c(O)nc2c1`, the Selectivity is 164.

Turning to `O=[N+]([O-])c1c(O)nc2cc(Cl)cc(Cl)c2c1O`, the Selectivity is 118.

The target in another experiment is T1, Glutamate receptor ionotropic, AMPA (Rattus norvegicus). The experiment in a line: Compound was tested for inhibition of AMPA receptors was measured in oocytes expressing rat cerebral cortex poly(A)+ RNA.(Three cells were examined). Conditions: Oocyte. Type of experiment: functional, cell-based.
The compound `O=[N+]([O-])c1c(O)nc2cc(Cl)cc(Cl)c2c1O` registered a Kb of 37 µM.
